Measured values reported in patent publication US10299478B2, “Pyrazolyltriazolylpyridines as pesticides” (BAYER ANIMAL HEALTH GMBH, priority 2014, dated 2019).

Legend:
Format in all cases: in vivo
[1] = system: adult dog ticks (Rhipicephalus sanguineus); assay: Rhipicephalus sanguineus in vitro contact test with adult brown dog ticks; conditions: coated test tube, after 48 h
Protocol: Rhipicephalus sanguineus-In Vitro Contact Tests with Adult Brown Dog Ticks
(§1) For the coating of the test tubes, 9 mg of active compound are first dissolved in 1 ml of acetone p.a. and then diluted to the desired concentration with acetone p.a. 250 μl of the solution are distributed homogeneously on the inner walls and the base of a 25 ml test tube by turning and rocking on an orbital shaker (rocking rotation at 30 rpm for 2 h). With 900 ppm active compound solution and internal surface 44.7 cm^2, given homogeneous distribution, an area-based dose of 5 μg/cm^2 is achieved.
After the solvent has evaporated off, the tubes are populated with 5-10 adult dog ticks (Rhipicephalus sanguineus), sealed with a perforated plastic lid and incubated in a horizontal position in the dark at room temperature and ambient humidity. After 48 h, efficacy is determined. To this end, the ticks are knocked to the floor of the tube and incubated on a hotplate at 45-50° C. for not more than 5 min. Ticks which remain motionless on the floor or move in such an uncoordinated manner that they are unable to deliberately avoid the heat by climbing upwards are considered to be dead or moribund.
An efficacy of 100% means that all the ticks were dead or moribund. 0% efficacy means that none of the ticks had been harmed.

[2] = system: cattle ticks (Boophilus microplus) Parkhurst strain, SP-resistant; assay: Boophilus microplus dip test; conditions: application rate 100 ppm, assessed after 7 days
Protocol: Boophilus microplus-Dip Test
• Test animals: cattle ticks (Boophilus microplus) Parkhurst strain, SP-resistant • Solvent: dimethyl sulphoxide
10 mg of active ingredient are dissolved in 0.5 ml of dimethyl sulphoxide. For the purpose of producing a suitable formulation, the active compound solution is diluted with water to the concentration desired in each case.
This active ingredient formulation is pipetted into tubes. 8-10 engorged adult female cattle ticks (Boophilus microplus) are transferred into a further tube with holes. The tube is immersed into the active compound preparation, and all the ticks are completely wetted. After the liquid has run out, the ticks are transferred on filter discs into plastic dishes and stored in a climate-controlled room.
(§2) Efficacy is assessed after 7 days by laying of fertile eggs. Eggs which are not visibly fertile are stored in a climate-controlled cabinet until the larvae hatch after about 42 days. An efficacy of 100% means that none of the ticks has laid any fertile eggs; 0% means that all the eggs are fertile.

[3] = system: engorged adult female cattle ticks (Boophilus microplus); assay: Boophilus microplus injection test; conditions: application rate 20 μg/animal; injection into the abdomen; assessed after 7 days
Protocol: Boophilus microplus-Injection Test
(§3) • Solvent: dimethyl sulphoxide
To produce an appropriate active ingredient formulation, 10 mg of active ingredient are mixed with 0.5 ml of solvent and the concentrate is diluted with solvent to the desired concentration.
1 μl of the active ingredient solution is injected into the abdomen of 5 engorged adult female cattle ticks (Boophilus microplus). The animals are transferred into dishes and kept in a climate-controlled room.
as §2

[4] = system: larvae of the mustard beetle (Phaedon cochleariae); assay: Phaedon cochleariae spray test; conditions: application rate 100 g/ha; Chinese cabbage leaf discs sprayed; after 7 days
Protocol: Phaedon cochleariae-Spray Test
(§4) • Solvent: 78.0 parts by weight of acetone • 1.5 parts by weight of dimethylformamide • Emulsifier: alkylaryl polyglycol ether
(§5) To produce an appropriate active ingredient formulation, 1 part by weight of active ingredient is dissolved using the specified parts by weight of solvent and made up with water containing an emulsifier concentration of 1000 ppm until the desired concentration is attained. To produce further test concentrations, the preparation is diluted with emulsifier-containing water.
Discs of Chinese cabbage leaves (Brassica pekinensis) are sprayed with an active ingredient formulation of the desired concentration and, after drying, populated with larvae of the mustard beetle (Phaedon cochleariae).
After 7 days, efficacy in % is determined. 100% means that all the beetle larvae have been killed; 0% means that no beetle larvae have been killed.

[5] = system: greenhouse red spider mite (Tetranychus urticae); assay: Tetranychus urticae spray test, OP-resistant; conditions: application rate 100 g/ha; bean leaf discs sprayed; after 6 days
Protocol: Tetranychus urticae-Spray Test, OP-Resistant
as §4, §5
Discs of bean leaves (Phaseolus vulgaris) infested by all stages of the greenhouse red spider mite (Tetranychus urticae) are sprayed with an active ingredient formulation of the desired concentration.
After 6 days, efficacy in % is determined. 100% means that all the spider mites have been killed; 0% means that no spider mites have been killed.

[6] = system: unfed adult cat fleas (Ctenocephalides felis); assay: Ctenocephalides felis oral test; conditions: application rate 100 ppm, in citrated cattle blood, after 2 days
Protocol: Ctenocephalides felis-Oral Test
as §3
To produce a suitable preparation of active compound, 10 mg of active compound are mixed with 0.5 ml of dimethyl sulphoxide. Dilution with citrated cattle blood gives the desired concentration.
About 20 unfed adult cat fleas (Ctenocephalides felis) are placed into a chamber which is closed at the top and bottom with gauze. A metal cylinder whose bottom end is closed with parafilm is placed onto the chamber. The cylinder contains the blood/active compound preparation, which can be imbibed by the fleas through the parafilm membrane.
After 2 days, the kill in % is determined. 100% means that all of the fleas have been killed; 0% means that none of the fleas have been killed.

[7] = system: Tick nymphs (Amblyomma hebraeum); assay: Amblyomma hebaraeum test; conditions: application rate 100 ppm; nymphs immersed for one minute; after 42 days
Protocol: as §3
(§6) To produce an appropriate active ingredient formulation, 10 mg of active ingredient are mixed with 0.5 ml of dimethyl sulphoxide, and the concentrate is diluted with water to the desired concentration.
Tick nymphs (Amblyomma hebraeum) are placed into perforated plastic beakers and immersed in the desired concentration for one minute. The ticks are transferred on filter paper into a Petri dish and stored in a climate-controlled cabinet.
After 42 days, the kill in % is determined. 100% means that all of the ticks have been killed; 0% means that none of the ticks have been killed.

[8] = system: green peach aphid (Myzus persicae); assay: Myzus persicae spray test; conditions: application rate 100 g/ha; Chinese cabbage leaf discs sprayed; after 6 days
Protocol: Myzus persicae-Spray Test
• Solvent: 78 parts by weight of acetone • 1.5 parts by weight of dimethylformamide • Emulsifier: alkylaryl polyglycol ether
as §5
Discs of Chinese cabbage leaves (Brassica pekinensis) infested by all stages of the green peach aphid (Myzus persicae) are sprayed with an active compound preparation of the desired concentration.
After 6 days, efficacy in % is determined. 100% means that all the aphids have been killed; 0% means that no aphids have been killed.

[9] = system: caterpillars of the armyworm (Spodoptera frugiperda); assay: Spodoptera frugiperda spray test; conditions: application rate 100 g/ha; maize leaf discs sprayed; after 7 days
Protocol: Spodoptera frugiperda-Spray Test
as §4, §5
Leaf discs of maize (Zea mays) are sprayed with an active ingredient formulation of the desired concentration and, after drying, populated with caterpillars of the armyworm (Spodoptera frugiperda).
After 7 days, efficacy in % is determined. 100% means that all the caterpillars have been killed; 0% means that no caterpillars have been killed.

[10] = system: adult houseflies (Musca domestica); assay: Musca domestica test; conditions: application rate 100 ppm; sponge with sugar solution; after 2 days
Protocol: as §3, §6
Vessels containing a sponge treated with sugar solution and the active ingredient formulation of the desired concentration are populated with 10 adult houseflies (Musca domestica).
After 2 days, the kill in % is determined. 100% means that all of the flies have been killed; 0% means that none of the flies have been killed.

[11] = system: L1 larvae of the Australian sheep blowfly (Lucilia cuprina); assay: Lucilia cuprina test; conditions: application rate 100 ppm; minced horsemeat; after 2 days
Protocol: as §3, §6
About 20 L1 larvae of the Australian sheep blowfly (Lucilia cuprina) are transferred into a test vessel containing minced horsemeat and the active ingredient preparation of the desired concentration.
After 2 days, the kill in % is determined. 100% means that all the larvae have been killed; 0% means that no larvae have been killed.

[12] = system: adult cat fleas (Ctenocephalides felis); assay: Ctenocephalides felis in vitro contact test with adult cat fleas; conditions: application rate 500 g/ha; coated test tube; after 48 h
Protocol: Ctenocephalides felis—In Vitro Contact Tests with Adult Cat Fleas
as §1, with “[…]” for “μg/cm^2”
After the solvent has evaporated off, the tubes are populated with 5-10 adult cat fleas (Ctenocephalides felis), sealed with a perforated plastic lid and incubated in a horizontal position at room temperature and ambient humidity. After 48 h, efficacy is determined. To this end, the test tubes are stood upright and the fleas are knocked to the base of the tube. Fleas which remain motionless at the base or move in an uncoordinated manner are considered to be dead or moribund.
100% efficacy means that all the fleas were dead or moribund. 0% efficacy means that no fleas were harmed.

[13] = system: southern root-knot nematode (Meloidogyne incognita); assay: Meloidogyne incognita test; conditions: application rate 20 ppm; lettuce in sand; after 14 days
Protocol: Meloidogyne incognita Test
• Solvent: 125.0 parts by weight of acetone
To produce an appropriate active ingredient formulation, 1 part by weight of active ingredient is mixed with the stated amount of solvent and the concentrate is diluted with water to the desired concentration.
Vessels are filled with sand, active ingredient solution, an egg/larvae suspension of the southern root-knot nematode (Meloidogyne incognita) and lettuce seeds. The lettuce seeds germinate and the plants develop. The galls develop on the roots.
After 14 days, the nematicidal efficacy in % is determined by the formation of galls. 100% means that no galls were found; 0% means that the number of galls on the treated plants corresponds to the untreated control.

| SMILES | efficacy (ticks dead or moribund) ([1]; application rate 100 g/ha) [%] | efficacy (laying of fertile eggs) [2] [%] | efficacy (laying of fertile eggs) [3] [%] | efficacy (beetle larvae killed) [4] [%] | efficacy (spider mites killed) [5] [%] | efficacy (kill of fleas) [6] [%] | efficacy (kill of ticks) [7] [%] | efficacy (aphids killed) [8] [%] | efficacy (caterpillars killed) [9] [%] | efficacy (kill of flies) [10] [%] | efficacy (kill of larvae) [11] [%] | efficacy (fleas dead or moribund) [12] [%] | nematicidal efficacy (formation of galls) [13] [%] | efficacy (ticks dead or moribund) ([1]; application rate 20 g/ha) [%] |
| --- | --- | --- | --- | --- | --- | --- | --- | --- | --- | --- | --- | --- | --- | --- |
| Cn1nc(C(F)(F)C(F)(F)F)c(C(F)(F)F)c1-n1cc(-c2cnc(Cl)c(C(=O)NC3(C#N)CC3)c2)nn1 [Ia-1] | 100 | 100 | 100 | 100 | 90 | 100 | 100 |  |  |  |  |  |  |  |
| Cn1nc(C(F)(F)C(F)(F)F)c(C(F)(F)F)c1-n1cc(-c2cnc(Cl)c(C(=O)NC3CC3)c2)nn1 [Ia-2, 2-Chloro-N-cyclopropyl-5-[1-[2-methyl-5-(1,1,2,2,2-pentafluoroethyl)-4-(trifluoromethyl)pyrazol-3-yl]triazol-4-yl]pyridine-3-carboxamide] | 100 | 100 | 100 | 100 | 100 | 100 | 100 | 90 | 100 | 100 | 100 |  |  |  |
| Cc1ncc(-c2cn(-c3c(C(F)(F)F)c(C(F)(F)C(F)(F)F)nn3C)nn2)cc1C(=O)NC1(C#N)CC1 [Ia-3] | 100 |  | 100 | 100 | 100 | 100 |  | 100 |  | 80 | 95 | 100 |  |  |
| Cc1ncc(-c2cn(-c3c(C(F)(F)F)c(C(F)(F)C(F)(F)F)nn3C)nn2)cc1C(=O)NC1CC1 [Ia-4] | 100 | 100 | 100 | 100 | 100 | 100 | 100 | 90 | 100 | 100 | 100 | 100 | 90 |  |
| COc1ncc(-c2cn(-c3c(C(F)(F)F)c(C(F)(F)C(F)(F)F)nn3C)nn2)cc1C(=O)NC1(C#N)CC1 [Ia-5] | 100 |  | 100 | 100 |  | 100 |  |  | 100 | 100 | 100 |  |  |  |
| COc1ncc(-c2cn(-c3c(C(F)(F)F)c(C(F)(F)C(F)(F)F)nn3C)nn2)cc1C(=O)NC1CC1 [Ia-6] |  |  | 100 | 100 |  | 100 |  |  |  | 100 | 100 |  |  | 80 |
